According to PMC6895213, “Four New Picrotoxane-Type Sesquiterpenes From Dendrobium nobile Lindl” (Frontiers in Chemistry, 2019):
pIC50: −log10 of the molar value.

Columns and labels:
α-glycosidase = α-glycosidase inhibitory activity (PNPG method); assay type: biochemical; details: yeast enzyme EC 3.2.1.20
Protocol: Optical rotations were measured on a MCP 5100 modular compact polarimeter (Anton Paar, America). IR spectra were taken on a Nicolet 380 FT-IR instrument (Thermo, USA) as KBr discs. NMR spectra were recorded on a Bruker Avance III 500 MHz NMR spectrometer (Bruker, German). ESIMS and HRESIMS were recorded with amaZon SL (Bruker) or Compact QqTOF (Bruker). ECD spectra were measured by APL Chiascan (Applied Photophysics Ltd., England). Semi-preparative HPLC was carried out using a C18 column (Cosmosil-pack, 10 × 250 mm, 5 μm, 4 mL/min, Nacalai Tesque). C18 gel (20–45 μm, Fuji SilysiSa Chemical Co., Ltd., Greenville, NC, UA), Silica gel (60–80, 200–300 mesh, Qingdao Marine Chemical Co., Ltd., Qingdao, China), Sephadex LH-20 (Merck, Kenilworth, NJ, USA) were used for column chromatograghy. α-glycosidase (Sigma-Aldrich, UA) used for the bioactivity was derived from yeast and its EINECS (EC) unmber is 3.2.1.20.
The method optimized by Jong et al. ([2007]) was performed in vitro to test the α-glucosidase inhibitory activity of compounds 1–8. Acarbose was used as positive control.
(§1) Compounds 1–8 were tested for inhibitory activity against α-glycosidase using the PNPG method and for cytotoxic effects on SGC-7901, K562, A549, BEL-7402, and Hela cell lines using the MTT method (See Supplementary Table 1 in the Supplementary Material).

Hela cell line = assay: MTT cytotoxicity assay, Hela; assay type: cell-based; details: MTT method, Hela cells
Protocol: (§2) The MTT method optimized by Mosmann ([1983]) was performed in vitro to test the cytotoxic activity of compounds 1–8. Cisplatin was used as a positive control.
as §1

K562 cell line = assay: MTT cytotoxicity assay, K562; assay type: cell-based; details: MTT method, K562 cells
Protocol: as §2, §1

A549 cell line = assay: MTT cytotoxicity assay, A549; assay type: cell-based; details: MTT method, A549 cells
Protocol: as §2, §1

BEL-7402 cell line = assay: MTT cytotoxicity assay, BEL-7402; assay type: cell-based; details: MTT method, BEL-7402 cells
Protocol: as §2, §1

SGC-7901 cell line = assay: MTT cytotoxicity assay, SGC-7901; assay type: cell-based; details: MTT method, SGC-7901 cells
Protocol: as §2, §1

[1] = test system: activated murine macrophage-like cell line RAW 264.7; design: method as in Zhang et al., 2007b; details: activated RAW 264.7 cells; ref Zhang et al., 2007b; cited from earlier work

Row | SMILES | pIC50 (α-glycosidase) | pIC50 (Hela cell line; Homo sapiens) | melting point | pIC50 (K562 cell line; Homo sapiens) | pIC50 (A549 cell line; Homo sapiens) | pIC50 (BEL-7402 cell line; Homo sapiens) | pIC50 (SGC-7901 cell line; Homo sapiens) | inhibitory effects on NO production [1] | pIC50 (Hela cell line) | pIC50 (K562 cell line) | pIC50 (A549 cell line) | pIC50 (BEL-7402 cell line) | pIC50 (SGC-7901 cell line)
1 | CC(C)C1C2OC(=O)C1C1(O)CC=CC1(C)C2NC=O (stereo not shown) [Compound 2, Dendroterpene B] | < 3.00 | < 4.30 | 200 to 201 °C | < 4.30 | < 4.30 | < 4.30 | < 4.30 |  |  |  |  |  | 
2 | COc1cccc(CC2C3=C(Oc4c2cc(O)c(O)c4OC)C(=O)c2cc(O)c4cc(O)ccc4c2C3=O)c1 (stereo not shown) [Compound 6, dendrocandin V] | 3.17 | < 4.30 |  | 4.55 | < 4.30 | < 4.30 | < 4.30 |  |  |  |  |  | 
3 | C[C@H]1O[C@H](O[C@H]2[C@H](O)[C@@H](O)[C@@H](O[C@H]3[C@H](O)[C@@H](O)C(O)O[C@@H]3CO)O[C@@H]2CO)[C@H](O)[C@@H](O)[C@@H]1N[C@H]1C=C(CO)[C@@H](O)[C@H](O)[C@H]1O (stereo partly shown) [Acarbose, reference compound] | 3.14 |  |  |  |  |  |  |  |  |  |  |  | 
4 | CC(C)C1C2OC(=O)C1C1CCC3C(=O)OC2C31C (stereo not shown) [Compound 3, Dendroterpene C] | 3.01 | < 4.30 |  | < 4.30 | < 4.30 | < 4.30 | < 4.30 |  |  |  |  |  | 
5 | COc1cccc(CCc2cc(OC)c(O)c3c2C(Cc2cccc(OC)c2)c2cc(O)c(O)c(OC)c2O3)c1 (stereo not shown) [Compound 5, nobilin E] | 4.52 | 4.65 |  | 4.98 | 4.54 | 4.70 | 4.76 | exhibited inhibitory effects on NO production |  |  |  |  | 
6 | CC(=O)/C=C/[C@@]1(O)C(C)=CC(=O)CC1(C)C [Compound 7, S(+)-dehydrovomifoliol] | < 3.00 | < 4.30 |  | < 4.30 | < 4.30 | < 4.30 | < 4.30 |  |  |  |  |  | 
7 | Oc1ccc(CCOCCc2ccc(O)cc2)cc1 [Compound 8, di-[2-(4-hydroxyphenyl)] ethyl ether] | 3.52 | < 4.30 |  | < 4.30 | < 4.30 | < 4.30 | < 4.30 |  |  |  |  |  | 
8 | N.N.[Cl][Pt][Cl] [Cisplatin, reference compound] |  |  |  |  |  |  |  |  | 4.95 | 5.51 | 5.71 | 5.40 | 5.39
9 | CC(C)C1C2OC(=O)C1C1CCC3(O)C(=O)OC2C13C (stereo not shown) [Compound 4, Dendroterpene D] | < 3.00 | < 4.30 | 167 to 168 °C | < 4.30 | < 4.30 | < 4.30 | < 4.30 |  |  |  |  |  | 
10 | CC(C)C1C2OC(=O)C1C1CC=CC1(C)C2NC=O (stereo not shown) [Compound 1, Dendroterpene A] | < 3.00 | < 4.30 | 185 to 186 °C | < 4.30 | < 4.30 | < 4.30 | < 4.30 |  |  |  |  |  | 
